In the supplement of paper PMC6045584:
± gives the standard deviation of the averaged measurements.

Experiments:
[1] = compound: NS(=O)(=O)OC[C@@H]1C[C@@H](n2ccc3c(N[C@H]4CCc5ccccc54)ncnc32)C[C@@H]1O [MLN-4924]; test: surviving fraction relative to DMSO-only wells; higher = less growth inhibition; conditions: exposure time: 5 days
In short: (§1)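 For each tumour cell line, log-phase cells were put into 384-well plates at 250–500 cells per well, then after 24 hours exposed continuously for five days to inhibitors at 0.5, 1, 5, 10, 50, 100, 500 and 1000 nM. Viability was assessed by CellTiter-Glo luminescence, with surviving fraction expressed relative to the median of DMSO-only wells. Lines were screened three times and retained only if replicate Pearson r exceeded 0.7 and median Z' exceeded 0.3.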

[2] = compound: C[C@@H](Oc1cc(-c2cnn(C3CCNCC3)c2)cnc1N)c1c(Cl)ccc(F)c1Cl; test: as above; conditions: exposure time: 5 days
In short: as §1

| Test System | surviving fraction ([1]; 0.5 nM) | surviving fraction ([1]; 1 nM) | surviving fraction ([1]; 5 nM) | surviving fraction ([1]; 10 nM) | surviving fraction ([1]; 50 nM) | surviving fraction ([1]; 100 nM) | surviving fraction ([1]; 500 nM) | surviving fraction ([1]; 1000 nM) | surviving fraction ([2]; 0.5 nM) | surviving fraction ([2]; 5 nM) | surviving fraction ([2]; 50 nM) | surviving fraction ([2]; 100 nM) | surviving fraction ([2]; 500 nM) | surviving fraction ([2]; 1000 nM) | surviving fraction ([2]; 1 nM) | surviving fraction ([2]; 10 nM) |
| --- | --- | --- | --- | --- | --- | --- | --- | --- | --- | --- | --- | --- | --- | --- | --- | --- |
| H23 LUNG | 0.992 ± 0.05 | 1.01 ± 0.053 | 1.07 ± 0.044 | 1.09 ± 0.049 | 1.18 ± 0.083 | 0.886 ± 0.073 | 0.14 ± 0.01 | 0.082 ± 0.004 | 0.9503 ± 0.0081 | 0.963 ± 0.034 | 0.9953 ± 0.0047 | 0.993 ± 0.023 | 0.926 ± 0.049 | 0.688 ± 0.019 | – | – |
| HCC78 LUNG | 0.845 ± 0.11 | 0.588 ± 0.064 | 0.722 ± 0.17 | 0.808 ± 0.15 | 0.487 ± 0.067 | 0.27 ± 0.1 | 0.0393 ± 0.011 | 0.0343 ± 0.0078 | 0.898 ± 0.19 | 1.05 ± 0.099 | 0.421 ± 0.08 | 0.455 ± 0.15 | 0.166 ± 0.012 | 0.069 ± 0.021 | 0.978 ± 0.1 | 0.838 ± 0.16 |
| HCC202 BREAST | 1.14 ± 0.32 | 1.07 ± 0.26 | 1.24 ± 0.12 | 1.131 ± 0.0092 | 0.731 ± 0.22 | 0.557 ± 0.22 | 0.299 ± 0.066 | 0.265 ± 0.015 | 1.31 ± 0.55 | 1.31 ± 0.015 | 1.32 ± 0.23 | 1.37 ± 0.17 | – | – | 1.08 ± 0.25 | 1.05 ± 0.069 |
| HCC1395 BREAST | 1.07 ± 0.042 | 1.13 ± 0.05 | 1.01 ± 0.14 | 1.15 ± 0.14 | 1.1 ± 0.014 | 1.083 ± 0.008 | 0.989 ± 0.1 | 1.01 ± 0.053 | 0.831 ± 0.14 | 0.814 ± 0.074 | 1.01 ± 0.11 | 1 ± 0.065 | – | 1 ± 0.089 | 0.74 ± 0.087 | 0.838 ± 0.097 |
| HCC1806 BREAST | 0.949 ± 0.094 | 1.02 ± 0.089 | 0.907 ± 0.074 | 0.395 ± 0.02 | 0.0957 ± 0.0076 | 0.0527 ± 0.0076 | 0.031 | 0.029 ± 0.0017 | 0.818 ± 0.034 | 0.87 ± 0.029 | 1.06 ± 0.11 | 0.862 ± 0.018 | 0.502 ± 0.022 | 0.273 ± 0.0078 | 0.74 ± 0.067 | – |
| HCC1954 BREAST | 1.12 ± 0.082 | 1.13 ± 0.045 | 1.09 ± 0.049 | 1.17 ± 0.3 | 0.656 ± 0.075 | 0.518 ± 0.021 | 0.1795 ± 0.0014 | 0.112 ± 0.016 | 0.364 ± 0.042 | 0.426 ± 0.06 | 0.472 ± 0.019 | 0.473 ± 0.036 | 0.443 ± 0.11 | 0.4677 ± 0.0032 | 0.353 ± 0.084 | 0.401 ± 0.021 |
| HCT15 LARGE INTESTINE | 1.06 ± 0.015 | 1.05 ± 0.095 | 1.07 ± 0.042 | 1.08 ± 0.065 | 0.966 ± 0.11 | 0.906 ± 0.11 | 0.299 ± 0.065 | 0.166 ± 0.041 | 0.88 ± 0.058 | 0.895 ± 0.03 | 0.959 ± 0.024 | – | 0.889 ± 0.042 | 0.165 ± 0.0046 | 0.88 ± 0.054 | – |
| HELA CERVIX | 1.12 ± 0.038 | 1.07 ± 0.06 | 1.1 ± 0.052 | 1 ± 0.022 | 1.16 ± 0.086 | 1.17 ± 0.1 | 0.718 ± 0.055 | 0.611 ± 0.027 | 0.969 ± 0.02 | 0.948 ± 0.018 | 1.02 ± 0.027 | 1.06 ± 0.055 | 0.811 ± 0.05 | 0.258 ± 0.015 | – | 0.895 ± 0.072 |
| HOS BONE | 1.04 ± 0.026 | 1.02 ± 0.014 | 1.01 ± 0.042 | 0.949 ± 0.027 | 0.574 ± 0.033 | 0.337 ± 0.013 | 0.0287 ± 0.0011 | 0.0287 ± 0.0021 | 0.934 ± 0.018 | 0.966 ± 0.03 | 1.008 ± 0.0042 | 0.997 ± 0.038 | 0.571 ± 0.029 | 0.499 ± 0.023 | 0.938 ± 0.019 | – |
| HOSMNG BONE | 0.883 ± 0.092 | 0.897 ± 0.032 | 0.951 ± 0.024 | 0.917 ± 0.05 | 1.04 ± 0.14 | 1.08 ± 0.053 | 0.503 ± 0.18 | 0.097 ± 0.016 | 0.985 ± 0.018 | 0.949 ± 0.016 | 0.637 ± 0.066 | 0.518 ± 0.016 | 0.262 ± 0.013 | 0.17 ± 0.0051 | 1 ± 0.02 | 0.949 ± 0.039 |
| HSSYII SYNOVIAL | 1.01 ± 0.14 | 1 ± 0.078 | 0.965 ± 0.033 | 0.992 ± 0.071 | 0.286 ± 0.012 | 0.166 ± 0.008 | 0.0248 ± 0.001 | 0.0283 ± 0.002 | 0.85 ± 0.056 | 0.81 ± 0.03 | 0.848 ± 0.021 | 0.794 ± 0.035 | 0.261 ± 0.0051 | 0.122 ± 0.01 | 0.882 ± 0.039 | 0.861 ± 0.036 |
| HT1080 SOFT TISSUE | 1.074 ± 0.0072 | 1.05 ± 0.047 | 1.112 ± 0.0055 | 1.14 ± 0.045 | 0.9977 ± 0.0078 | 0.705 ± 0.042 | 0.223 ± 0.022 | 0.11 ± 0.0061 | 1 ± 0.018 | 1.02 ± 0.011 | – | – | 0.953 ± 0.036 | 0.638 ± 0.047 | – | 0.991 ± 0.059 |
| HU09 BONE | 0.948 ± 0.097 | 0.931 ± 0.076 | 1.04 ± 0.03 | 1.15 ± 0.048 | 1.01 ± 0.096 | 0.707 ± 0.052 | 0.296 ± 0.0049 | 0.26 ± 0.018 | – | – | – | 0.841 ± 0.014 | 0.388 ± 0.053 | 0.197 ± 0.018 | 0.889 ± 0.033 | 0.95 ± 0.07 |
| HUO3N1 BONE | 0.9977 ± 0.0055 | 0.994 ± 0.022 | 1.02 ± 0.017 | 1.05 ± 0.036 | 1.17 ± 0.041 | 1.19 ± 0.034 | 0.663 ± 0.031 | 0.528 ± 0.014 | – | 0.971 ± 0.034 | 0.974 ± 0.02 | 0.954 ± 0.029 | 0.842 ± 0.019 | 0.695 ± 0.031 | – | – |
| JIMT1 BREAST | 1.06 ± 0.04 | 1.016 ± 0.0069 | 1.06 ± 0.019 | 1.06 ± 0.017 | 1.09 ± 0.056 | 1.06 ± 0.062 | 0.764 ± 0.046 | 0.539 ± 0.073 | 0.869 ± 0.035 | 0.893 ± 0.04 | 0.971 ± 0.045 | 0.959 ± 0.038 | 0.634 ± 0.075 | 0.517 ± 0.042 | 0.834 ± 0.024 | 0.862 ± 0.033 |
| JURKAT HAEMATOPOIETIC AND LYMPHOID TISSUE | 1.07 ± 0.016 | 1.02 ± 0.032 | 1.01 ± 0.025 | 0.931 ± 0.025 | 0.371 ± 0.012 | 0.154 ± 0.0059 | 0.0333 ± 0.00058 | 0.0313 ± 0.00058 | 0.993 ± 0.024 | – | 0.984 ± 0.021 | 0.943 ± 0.019 | 0.235 ± 0.013 | 0.195 ± 0.013 | 0.993 ± 0.029 | 0.98 ± 0.013 |
| KPD BONE | 0.9553 ± 0.0032 | 0.985 ± 0.028 | 1.04 ± 0.057 | 1.09 ± 0.094 | 0.921 ± 0.045 | 0.736 ± 0.048 | 0.239 ± 0.017 | 0.183 ± 0.022 | 0.886 ± 0.043 | 0.974 ± 0.039 | 0.987 ± 0.083 | – | 0.518 ± 0.011 | 0.156 ± 0.012 | 0.87 ± 0.013 | – |
